Test results published in patent publication US20250312352A1, “GLP-1R MODULATING COMPOUNDS” (Gilead Sciences, Inc., priority 2021, published 2025).

molecular target: T1, GLP-1R (Homo sapiens, UniProt P43220); experiment: GLP-1R activation cAMP assay (Assay 1 or Assay 2); format: cell-based; settings: cAMP increase in CHO cells stably expressing GLP-1R; compounds run on one of the two cAMP assays
T1 construct: host or cells: CHO cells
Procedure, shortened: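 CHO cells stably expressing human GLP-1R were incubated 1 h in HBSS/20 mM HEPES/0.1% BSA, then exposed to 10-point agonist dilutions for 30 min at 37 °C. cAMP increase was measured with an HTRF Gs dynamic kit; EC50 from sigmoidal fit of response versus log concentration.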

T1 sequence (P43220 24-463): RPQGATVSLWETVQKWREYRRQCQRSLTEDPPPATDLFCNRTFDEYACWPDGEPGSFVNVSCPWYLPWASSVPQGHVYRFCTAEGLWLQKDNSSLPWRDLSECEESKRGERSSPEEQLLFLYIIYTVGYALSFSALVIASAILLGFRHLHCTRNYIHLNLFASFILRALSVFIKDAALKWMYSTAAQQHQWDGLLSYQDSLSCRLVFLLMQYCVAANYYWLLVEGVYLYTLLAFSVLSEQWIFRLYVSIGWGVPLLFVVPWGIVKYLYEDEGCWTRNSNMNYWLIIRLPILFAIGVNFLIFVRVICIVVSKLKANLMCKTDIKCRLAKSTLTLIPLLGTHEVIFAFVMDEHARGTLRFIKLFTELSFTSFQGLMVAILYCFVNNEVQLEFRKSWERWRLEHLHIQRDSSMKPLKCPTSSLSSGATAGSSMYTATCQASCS

Row | EC50 | Structure (SMILES)
1 | 0.096 nM | CC1(C)COC[C@H]1n1c(Cc2cc(F)c(-c3cccc(OCc4sc(C#N)cc4F)n3)cc2F)nc2ccc(C(=O)O)cc21 [Example 419, (S)-2-(4-(6-((5-cyano-3-fluorothiophen-2-yl)methoxy)pyridin-2-yl)-2,5-difluorobenzyl)-1-(4,4-dimethyltetrahydrofuran-3-yl)-1H-benzo[d]imidazole-6-carboxylic acid]
2 | 0.19 nM | CC1(C)COC[C@@H]1n1c(Cc2cc(F)c(-c3cccc(OCc4ncc(C#N)s4)n3)cc2F)nc2ccc(C(=O)O)cc21 [Example 182, (R)-2-(4-(6-((5-cyanothiazol-2-yl)methoxy)pyridin-2-yl)-2,5-difluorobenzyl)-1-(4,4-dimethyltetrahydrofuran-3-yl)-1H-benzo[d]imidazole-6-carboxylic acid]
3 | 0.51 nM | NC(=O)c1ccc(COc2nccc(-c3cc(F)c(Cc4nc5ccc(C(=O)O)cc5n4C[C@@H]4CCO4)cc3F)n2)c(OC(F)F)n1 [Example 223, (S)-2-(4-(2-((6-carbamoyl-2-(difluoromethoxy)pyridin-3-yl)methoxy)pyrimidin-4-yl)-2,5-difluorobenzyl)-1-(oxetan-2-ylmethyl)-1H-benzo[d]imidazole-6-carboxylic acid]
4 | 13.6 nM | Cn1cncc1-c1cnc(COc2cccc(-c3cc(F)c(Cc4nc5ccc(C(=O)O)cc5n4C[C@@H]4CCO4)cc3F)n2)s1 [Example 102, (S)-2-(2,5-difluoro-4-(6-((5-(1-methyl-1H-imidazol-5-yl)thiazol-2-yl)methoxy)pyridin-2-yl)benzyl)-1-(oxetan-2-ylmethyl)-1H-benzo[d]imidazole-6-carboxylic acid]
5 | 2.94 nM | NC(=O)c1ccc(COc2cccc(-c3cc(F)c(Cc4nc5ccc(C(=O)O)cc5n4C[C@@H]4CCO4)cc3F)n2)o1 [Example 171, (S)-2-(4-(6-((5-carbamoylfuran-2-yl)methoxy)pyridin-2-yl)-2,5-difluorobenzyl)-1-(oxetan-2-ylmethyl)-1H-benzo[d]imidazole-6-carboxylic acid]
6 | 0.12 nM | Cn1cc(-c2nnc(COc3cccc(-c4cc(F)c(Cc5nc6ccc(C(=O)O)cc6n5C[C@@H]5CCO5)cc4F)n3)s2)cn1 [Example 91, (S)-2-(2,5-difluoro-4-(6-((5-(1-methyl-1H-pyrazol-4-yl)-1,3,4-thiadiazol-2-yl)methoxy)pyridin-2-yl)benzyl)-1-(oxetan-2-ylmethyl)-1H-benzo[d]imidazole-6-carboxylic acid]
7 | 0.28 nM | O=C(O)c1ccc2nc(Cc3cc(F)c(-c4cccc(OCc5ccc(C#Cc6cccnc6)cc5F)n4)cc3F)n(C[C@@H]3CCO3)c2c1 [Example 139, (S)-2-(2,5-difluoro-4-(6-((2-fluoro-4-(pyridin-3-ylethynyl)benzyl)oxy)pyridin-2-yl)benzyl)-1-(oxetan-2-ylmethyl)-1H-benzo[d]imidazole-6-carboxylic acid]
8 | 0.081 nM | O=C(O)c1cc(F)c2nc(Cc3c(F)cc(-c4cccc(OCc5ncc(C(F)(F)F)s5)n4)c(F)c3F)n(C[C@@H]3CCO3)c2c1 [Example 449, (S)-4-fluoro-1-(oxetan-2-ylmethyl)-2-(2,3,6-trifluoro-4-(6-((5-(trifluoromethyl)thiazol-2-yl)methoxy)pyridin-2-yl)benzyl)-1H-benzo[d]imidazole-6-carboxylic acid]
9 | 0.17 nM | CNC(=O)c1cc(F)c(COc2cccc(-c3cc(F)c(Cc4nc5ccc(C(=O)O)cc5n4C[C@@H]4CCO4)cc3F)n2)cn1 [Example 243, 2-[[2,5-difluoro-4-[6-[[4-fluoro-6-(methylcarbamoyl)-3-pyridyl]methoxy]-2-pyridyl]phenyl]methyl]-3-[[(2S)-oxetan-2-yl]methyl]benzimidazole-5-carboxylic acid]
10 | 0.563 nM | O=C(O)c1ccc2nc(Cc3cc(F)c(-c4cccc(OCc5ncc(-c6ccc(Cl)cc6)s5)n4)cc3F)n(C[C@@H]3CCO3)c2c1 [Example 384, (S)-2-(4-(6-((5-(4-chlorophenyl)thiazol-2-yl)methoxy)pyridin-2-yl)-2,5-difluorobenzyl)-1-(oxetan-2-ylmethyl)-1H-benzo[d]imidazole-6-carboxylic acid]
11 | 0.582 nM | N#Cc1ccc(C#Cc2cnc(COc3cccc(-c4cc(F)c(Cc5nc6ccc(C(=O)O)cc6n5C[C@@H]5CCO5)cc4F)n3)s2)cc1 [Example 325, (S)-2-(4-(6-((5-((4-cyanophenyl)ethynyl)thiazol-2-yl)methoxy)pyridin-2-yl)-2,5-difluorobenzyl)-1-(oxetan-2-ylmethyl)-1H-benzo[d]imidazole-6-carboxylic acid]
12 | 0.06 nM | Cn1cc(-c2cnc(COc3cccc(-c4cc(F)c(Cc5nc6ccc(C(=O)O)cc6n5C[C@@H]5CCO5)cc4F)n3)s2)cn1 [Example 79, 2-[[2,5-difluoro-4-[6-[[5-(1-methylpyrazol-4-yl)thiazol-2-yl]methoxy]-2-pyridyl]phenyl]methyl]-3-[[(2S)-oxetan-2-yl]methyl]benzimidazole-5-carboxylic acid]
13 | 1.43 nM | N#Cc1csc(COc2cccc(-c3cc(F)c(Cc4nc5ccc(C(=O)O)cc5n4C[C@@H]4CCO4)cc3F)n2)n1 [Example 23, (S)-2-(4-(6-((4-cyanothiazol-2-yl)methoxy)pyridin-2-yl)-2,5-difluorobenzyl)-1-(oxetan-2-ylmethyl)-1H-benzo[d]imidazole-6-carboxylic acid]
14 | 0.039 nM | CCOc1nnc(COc2cccc(-c3cc(F)c(Cc4nc5ccc(C(=O)O)cc5n4[C@@H]4COCC4(C)C)cc3F)n2)s1 [Example 430, (S)-1-(4,4-dimethyltetrahydrofuran-3-yl)-2-(4-(6-((5-ethoxy-1,3,4-thiadiazol-2-yl)methoxy)pyridin-2-yl)-2,5-difluorobenzyl)-1H-benzo[d]imidazole-6-carboxylic acid]
15 | 15.7 nM | O=C(O)c1ccc2nc(Cc3cc(F)c(-c4cccc(OCc5cn(C6CC6)nn5)n4)cc3F)n(C[C@@H]3CCO3)c2c1 [Example 210, 2-[[4-[6-[(1-cyclopropyltriazol-4-yl)methoxy]-2-pyridyl]-2,5-difluoro-phenyl]methyl]-3-[[(2S)-oxetan-2-yl]methyl]benzimidazole-5-carboxylic acid]
16 | 75.3 nM | CN(C)C(=O)c1ccc(COc2cccc(-c3cc(F)c(Cc4nc5ccc(C(=O)O)cc5n4C[C@@H]4CCO4)cc3F)n2)cn1 [Example 44, (S)-2-(4-(6-((6-(dimethylcarbamoyl)pyridin-3-yl)methoxy)pyridin-2-yl)-2,5-difluorobenzyl)-1-(oxetan-2-ylmethyl)-1H-benzo[d]imidazole-6-carboxylic acid]
17 | 0.218 nM | CC(F)(F)c1cnc(COc2nc(-c3cc(F)c(Cc4nc5c(F)cc(C(=O)O)cc5n4[C@@H]4COCC4(C)C)cc3F)ccc2F)s1 [Example 338, (S)-2-(4-(6-((5-(1,1-difluoroethyl)thiazol-2-yl)methoxy)-5-fluoropyridin-2-yl)-2,5-difluorobenzyl)-1-(4,4-dimethyltetrahydrofuran-3-yl)-4-fluoro-1H-benzo[d]imidazole-6-carboxylic acid]
18 | 0.01 nM | CNC(=O)c1cc(Cl)c(COc2cccc(-c3ccc(Cc4nc5ccc(C(=O)O)cc5n4[C@@H]4COCC4(C)C)c(F)c3)n2)cn1 [Example 399, (S)-2-(4-(6-((4-chloro-6-(methylcarbamoyl)pyridin-3-yl)methoxy)pyridin-2-yl)-2-fluorobenzyl)-1-(4,4-dimethyltetrahydrofuran-3-yl)-1H-benzo[d]imidazole-6-carboxylic acid]
19 | 0.22 nM | Cn1cc(CNC(=O)c2cc(Cl)c(COc3cccc(-c4cc(F)c(Cc5nc6ccc(C(=O)O)cc6n5C[C@@H]5CCO5)cc4F)n3)cn2)cn1 [Example 193, (S)-2-(4-(6-((4-chloro-6-(((1-methyl-1H-pyrazol-4-yl)methyl)carbamoyl)pyridin-3-yl)methoxy)pyridin-2-yl)-2,5-difluorobenzyl)-1-(oxetan-2-ylmethyl)-1H-benzo[d]imidazole-6-carboxylic acid]
20 | 730 nM | COCCn1c(Cc2cc(F)c(-c3cccc(OCc4cnn(-c5ccccc5)c4)n3)cc2F)nc2ccc(C(=O)O)cc21 [Example 121, 2-(2,5-difluoro-4-(6-((1-phenyl-1H-pyrazol-4-yl)methoxy)pyridin-2-yl)benzyl)-1-(2-methoxyethyl)-1H-benzo[d]imidazole-6-carboxylic acid]
21 | 0.094 nM | O=C(O)c1cc(F)c2nc(Cc3cc(F)c(-c4cccc(OCc5ccc(Cl)s5)n4)cc3F)n(C[C@@H]3CCO3)c2c1 [Example 314, (S)-2-(4-(6-((5-chlorothiophen-2-yl)methoxy)pyridin-2-yl)-2,5-difluorobenzyl)-4-fluoro-1-(oxetan-2-ylmethyl)-1H-benzo[d]imidazole-6-carboxylic acid]
22 | 1.42 nM | Cc1cc(Cc2nc3ccc(C(=O)O)cc3n2[C@@H]2COCC2(C)C)c(Cl)cc1-c1ccc(F)c(OCc2ncc(C(C)(F)F)s2)n1 [Example 427, (S)-2-(2-chloro-4-(6-((5-(1,1-difluoroethyl)thiazol-2-yl)methoxy)-5-fluoropyridin-2-yl)-5-methylbenzyl)-1-(4,4-dimethyltetrahydrofuran-3-yl)-1H-benzo[d]imidazole-6-carboxylic acid]
23 | 0.32 nM | O=C(O)c1ccc2nc(Cc3cc(F)c(-c4cccc(OCc5cc(C(F)(F)F)co5)n4)cc3F)n(C[C@@H]3CCO3)c2c1 [Example 18, (S)-2-(2,5-difluoro-4-(6-((4-(trifluoromethyl)furan-2-yl)methoxy)pyridin-2-yl)benzyl)-1-(oxetan-2-ylmethyl)-1H-benzo[d]imidazole-6-carboxylic acid]
24 | 0.205 nM | O=C(O)c1ccc2nc(Cc3cc(F)c(-c4cccc(OCc5ncc(C#CC6CCC6)s5)n4)cc3F)n(C[C@@H]3CCO3)c2c1 [Example 333, (S)-2-(4-(6-((5-(cyclobutylethynyl)thiazol-2-yl)methoxy)pyridin-2-yl)-2,5-difluorobenzyl)-1-(oxetan-2-ylmethyl)-1H-benzo[d]imidazole-6-carboxylic acid]
